# Tested on: Staphyloccus aureus
# Assay: Microbial antiadhesion assay on coated PMMA test pins
# Format: cell-based
# Conditions: adhering microbes as percent of control pins (acrylate film former only = 100%), test concentration 0.50% in Glascol LS26 acrylate film former, 60 min in S. aureus suspension, immunological detection
# Description: Microbial Antiadhesion Assay
# According to the method of Nature Medicine Vol. 6, No. 8, 1053-1056, Zosterate esters are dissolved in a solution containing an acrylate polymeric film former (Glascol LS26, 4.6% active). Test pins made of PMMA are dipped into the solutions, incubated for 20 minutes and allowed to dry. The test pins are incubated in a suspension of Staphyloccus aureus for 60 min, then rinsed with PBS buffer. The microbial cells adhering to the pin are detected in an immunological assay using specific antibodies against the test strain which are then detected […]. The results are reported as a percent relative to the control pins (treated with acrylate film former only), a value of 100% represents the value observed on the control pins; a value of 42% represents a 0.42× the amount of microbes found on the pins treated with acrylate film former only.
row,Structure (SMILES),Results on PMMA Based on Control
1,CCCCOC(=O)/C=C/c1ccc(OS(=O)(=O)O)cc1 [1-Butyl zosterate],70%
2,CCC(C)OC(=O)/C=C/c1ccc(OS(=O)(=O)O)cc1 (stereo not drawn) [2-Butyl zosterate],42%
3,"COC(=O)/C=C/c1ccc(OS(=O)(=O)O)cc1 [Methyl zosterate, Methyl Zosterate]",28%

# Source: patent US7618697B2, “Carboxylic acid esters of zosteric acid for prevention of biofouling” (Ciba Specialty Chemicals Corporation, priority 2005, dated 2009)
